Here are results for 14 compounds from patent US7396812B2, “Method for modulating Nod1 activity, use of a MTP related molecule for modulating Nod1 activity, and therapeutic applications thereof” (Institut Pasteur, priority 2003, dated 2008).

For assay [1], the target named is T1, Nod1 (Homo sapiens, UniProt Q9Y239).
T1 sequence (Q9Y239 1-953): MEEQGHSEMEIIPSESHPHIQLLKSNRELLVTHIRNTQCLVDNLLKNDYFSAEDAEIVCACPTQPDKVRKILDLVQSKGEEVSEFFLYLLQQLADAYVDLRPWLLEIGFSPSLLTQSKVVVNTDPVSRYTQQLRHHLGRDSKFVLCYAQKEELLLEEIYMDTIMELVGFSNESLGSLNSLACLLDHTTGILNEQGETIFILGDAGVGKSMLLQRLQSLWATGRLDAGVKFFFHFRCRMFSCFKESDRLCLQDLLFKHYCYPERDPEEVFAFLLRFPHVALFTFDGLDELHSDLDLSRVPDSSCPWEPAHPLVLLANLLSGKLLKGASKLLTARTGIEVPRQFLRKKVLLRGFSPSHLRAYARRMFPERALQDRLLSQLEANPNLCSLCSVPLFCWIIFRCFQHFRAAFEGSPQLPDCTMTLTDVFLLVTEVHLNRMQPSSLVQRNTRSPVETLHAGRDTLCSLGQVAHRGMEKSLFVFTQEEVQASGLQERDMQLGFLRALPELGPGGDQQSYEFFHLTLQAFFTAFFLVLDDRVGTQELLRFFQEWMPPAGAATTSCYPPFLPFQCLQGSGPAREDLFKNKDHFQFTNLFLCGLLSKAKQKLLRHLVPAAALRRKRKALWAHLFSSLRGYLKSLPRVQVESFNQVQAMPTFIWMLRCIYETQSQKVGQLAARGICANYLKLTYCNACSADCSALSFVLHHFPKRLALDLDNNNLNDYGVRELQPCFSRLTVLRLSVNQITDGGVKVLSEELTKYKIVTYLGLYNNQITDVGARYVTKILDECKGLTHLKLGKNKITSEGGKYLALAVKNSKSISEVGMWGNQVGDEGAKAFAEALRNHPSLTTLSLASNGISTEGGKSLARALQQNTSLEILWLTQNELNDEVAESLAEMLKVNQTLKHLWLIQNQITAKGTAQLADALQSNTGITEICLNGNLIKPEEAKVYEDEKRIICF
The experiment in a line: Nod1-dependent NF-κB-luciferase activation in Nod1-overexpressing HEK293 cells. The note with it: for detection by Nod1 (Nod1-dependent activation of NF-κB): equivalent amounts (10 ng) of muropeptide; for activation of Nod1 by HPLC muropeptide fractions: N. meningitidis PGN muropeptide fractions, 1% of the volume of each fraction; for stimulation of the Nod1 pathway (NF-κB activation): LPS, lipid A, lipoprotein preparations, 10 μg (10 μg/ml in b180). The class given is cell-based. Also noted: expressed in transfected cells; host or cells: HEK293. How it is done:
(§1) Studies examining the activation of NF-κB by LPS, lipid A, lipoproteins or the purified PGNs in cells over-expressing Nod1 were carried out as described by Inohara et al. (N. Inohara et al., 2001). Briefly, HEK293 cells were transfected overnight with 10 ng of Nod1. At the same time, the LPS, lipoproteins or peptidoglycan preparations were added and the NF-κB-dependent luciferase activation was then measured following 24 h of co-incubation.
(§2) NF-κB-dependent luciferase assays were performed in duplicate and data represent at least 3 independent experiments.

Assay [2] deals with T2, Nod2 (Homo sapiens, UniProt Q9HC29).
T2 construct: expressed in transfected cells
T2 sequence (Q9HC29 whole entry): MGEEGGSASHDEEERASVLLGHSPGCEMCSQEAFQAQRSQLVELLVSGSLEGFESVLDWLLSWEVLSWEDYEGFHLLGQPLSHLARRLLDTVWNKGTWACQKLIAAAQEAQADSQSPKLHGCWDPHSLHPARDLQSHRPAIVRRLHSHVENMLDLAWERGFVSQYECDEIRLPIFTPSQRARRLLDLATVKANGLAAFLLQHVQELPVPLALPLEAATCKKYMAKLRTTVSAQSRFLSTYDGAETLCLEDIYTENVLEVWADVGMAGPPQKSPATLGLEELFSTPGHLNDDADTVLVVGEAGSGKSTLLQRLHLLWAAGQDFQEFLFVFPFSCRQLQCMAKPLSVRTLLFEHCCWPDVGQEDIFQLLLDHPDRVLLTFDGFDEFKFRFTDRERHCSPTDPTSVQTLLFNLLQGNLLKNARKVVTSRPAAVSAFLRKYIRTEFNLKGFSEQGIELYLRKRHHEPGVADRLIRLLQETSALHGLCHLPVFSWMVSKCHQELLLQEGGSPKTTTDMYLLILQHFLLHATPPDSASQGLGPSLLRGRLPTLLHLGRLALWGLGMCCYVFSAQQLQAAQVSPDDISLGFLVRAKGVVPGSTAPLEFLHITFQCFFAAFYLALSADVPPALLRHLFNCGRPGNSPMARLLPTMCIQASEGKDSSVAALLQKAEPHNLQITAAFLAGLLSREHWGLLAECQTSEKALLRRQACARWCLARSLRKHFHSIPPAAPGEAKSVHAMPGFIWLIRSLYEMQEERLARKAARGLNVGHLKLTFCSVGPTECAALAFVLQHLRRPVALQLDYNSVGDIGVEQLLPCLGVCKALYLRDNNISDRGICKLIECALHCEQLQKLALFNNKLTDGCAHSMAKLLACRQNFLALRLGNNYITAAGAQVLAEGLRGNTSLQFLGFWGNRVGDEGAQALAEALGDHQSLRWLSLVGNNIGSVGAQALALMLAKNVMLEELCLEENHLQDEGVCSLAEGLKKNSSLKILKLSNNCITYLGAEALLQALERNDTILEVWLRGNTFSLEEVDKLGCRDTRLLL
In words: Nod2-dependent activation of NF-κB. The class given is cell-based. The note with it: equivalent amounts (10 ng) of muropeptide. How it is done:
as §1, §2
In FIG. 2A, PGN muropeptides from N. meningitidis were separated by reverse-phase HPLC and subsequently analysed by mass spectroscopy (see supporting on-line text). N.D.(a), not determined for this particular HPLC fractionation, but found to be O-acetylated dimeric GM-tetrapeptide in subsequent HPLC fractionation and mass spectroscopy analyses. […] N.D.(b), fraction unknown. […] FIG. 2C is a schematic representation of N. meningitidis PGN detailing the Nod1-active motif from fraction 3 (GM-tripeptide) as determined by mass spectroscopy. In FIG. 2D, equivalent amounts (10 ng) of GM-dipeptide (GM-di; synthetic source), GM-tripeptide (GMtri), or GM-tetrapeptide (GM-tetra) were tested for stimulation of Nod1-, Nod2- or TLR2-dependent activation of NF-κB. […]

Assay [3] relates to NF-κB p65 in isolated intestinal epithelial cells. The experiment in a line: NF-κB p65 nuclear translocation in isolated intestinal epithelial cells from wild-type or Nod1-deficient mice. It is filed as cell-based. The note with it: supernatants microinjected, TNFα 10 ng/ml. The procedure: At least 50 microinjected cells were examined per coverslip and experiments were performed at least 2 times independently with similar results.
Microinjection of Gram-negative but not Gram-positive bacterial supernatants activates NF-κB in isolated intestinal epithelial cells from wild-type mice, as observed by nuclear translocation of the p65 subunit of NF-κB (as described in FIG. 3B).

The target in assay [4] is T1, Nod1. In words: Nod1-dependent IL-8 production in HeLa epithelial cells (ELISA). Set-up: expressed in transfected cells. The class given is cell-based. The following applies: HeLa cells transfected with 10 ng Nod1 plus muropeptide, 18 h. How it is done:
To measure Nod1-dependent IL-8 produced in epithelial cells by muropeptides, 5×10^5 HeLa cells were seeded into each well of a twelve well plate and transfected the following day with 10 ng Nod1 plus the individual muropeptides (as described above) or treated with IL-1 as a positive control. Eighteen hours later, supernatants were collected and assayed for IL-8 as previously described (D. J. Philpott et al., 2000) using an ELISA kit (R and D Systems).

The target of assay [5] is T2, Nod2. The note with it: previous findings, Girardin et al. 2003; Inohara et al. 2003; cited from earlier work.

Entries after “also recorded” stand apart in the source; their conditions may differ.

On to `CC(=O)NC1C(O)OC(CO)C(O)C1OC(C)C(=O)NC(C)C(=O)NC(CCC(=O)NC(CCCC(N)C(=O)O)C(=O)O)C(=O)O` (stereo not drawn) [MurTriDAP], for which the “detection by Nod1 of peptidoglycan structures (FIG. 8)” value (“detection by Nod1 … (FIG. 8)” for short) on Nod1 [1] is “detects”.
Still for that read-out and setting: the same measure for `C[C@H](N)C(=O)N[C@H](CCC(=O)NC(CCCC(N)C(=O)O)C(=O)O)C(=O)O` (stereo partly drawn) [tripeptide L-Ala-D-Glu-mesoDAP, L-Ala-D-Glu-mesoDAP]: “able to sense”.
As to `C[C@H](N)C(=O)N[C@H](CCC(=O)NC(CCCC(N)C(=O)O)C(=O)O)C(=O)O` (stereo partly drawn) [TriDAP], the “detection by Nod1 … (FIG. 8)” value at Nod1 [1] is given as “detects”.
As to “GlcNAc-MurNAc-L-Ala-D-Glu-mesoDAP-DAla [GM-tetrapeptide]”, the “detection by Nod1 (Nod1-dependent activation of NF-κB)” value on Nod1 [1] was “not sensed by Nod1”.
For the compound `CC(=O)N[C@H]1[C@H](O[C@H]2[C@H](O[C@H](C)C(=O)N[C@@H](C)C(=O)N[C@H](CCC(=O)O)C(N)=O)[C@@H](NC(C)=O)C(O)O[C@@H]2CO)O[C@H](CO)[C@@H](O)[C@@H]1O` (stereo partly drawn) [GM-dipeptide], the “detection by Nod2 (Nod2-dependent activation of NF-κB)” value on Nod2 [2] is on record as “detects”.
For the compound TNFα, the “NF-κB nuclear translocation in Nod1-deficient cells” value in assay [3] is recorded as “can efficiently stimulate NF-κB nuclear translocation”.
As for “GlcNAc-MurNAc-L-Ala-D-Glu-mesoDAP [GM-tripeptide]”, at Nod1 [4], the “production of IL-8” value is on record as “production of the pro-inflammatory chemokine, IL-8; also recorded: leads to the production”. Moreover, on Nod1 [1], the “detection by Nod1 … (FIG. 8)” value is “detects” and the “detection by Nod1 (Nod1-dependent activation of NF-κB)” value is “specifically detects”. For the same compound, on Nod1 [1] (listed as fraction 3), the “activation of Nod1 by HPLC muropeptide fractions” value is “activates Nod1; also recorded: able to activate Nod1”.
For the compound “GlcNAc-anhydro-MurNAc-L-Ala-D-GlumesoDAP [anhydrous GM-tripeptide]”, at Nod1 [1], the “activation of Nod1 by HPLC muropeptide fractions” value is reported as “active molecule in fraction 17”.
“Pam3Cys-Ser-Lys4-OH [synthetic lipopeptide]”: the entries for the “stimulation of the Nod1 pathway (NF-κB activation)” value (from here on “stimulation of the Nod1 pathway”) at Nod1 [1] and on Nod1 [1] (listed as lipopeptide) were “not possible to stimulate the Nod1 pathway” and “fail to activate the Nod1 pathway”, respectively.
Turning to “Lpp: the most abundant lipoprotein in E. coli (lipidated)”, the “stimulation of the Nod1 pathway” value with Nod1 [1] is reported as “fail to activate the Nod1 pathway; also recorded: not possible to stimulate the Nod1 pathway”.
In the case of `CC(=O)N[C@@H]1[C@@H](O[C@H](C)C(=O)N[C@@H](C)C(=O)N[C@H](CCC(=O)O)C(N)=O)[C@H](O)[C@@H](CO)O[C@H]1O` [M-dipeptide], the “recognition by Nod2” value at Nod2 [5] is listed as “recognizes”.
As to `CC(=O)N[C@H]1[C@@H](OP(=O)(O)OP(=O)(O)OC[C@H]2O[C@@H](n3ccc(=O)[nH]c3=O)[C@H](O)[C@@H]2O)O[C@H](CO)[C@@H](O)[C@@H]1O[C@H](C)C(=O)N[C@@H](C)C(=O)N[C@H](CCC(=O)N[C@@H](CCC[C@@H](N)C(=O)O)C(=O)O)C(=O)O` [UDP-MurTriDAP], the “detection by Nod1 … (FIG. 8)” value at Nod1 [1] was “detects”.
For the compound “GlcNAc-MurNAc-L-Ala-D-Glu-mesoDAP(GlcNAc-MurNAc-L-Ala-D-Glu-mesoDAP-D-Ala)-D-Ala [dimeric GM-tetrapeptide]”, the “activation of Nod1 by HPLC muropeptide fractions” value on Nod1 [1] is recorded as “does not activate Nod1”.
Regarding lipid A, on Nod1 [1], the “stimulation of the Nod1 pathway” value is reported as “could not stimulate the Nod1 pathway”.
